Source: PubChem BioAssay (NCI)
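Step 1: Grow cells in 96-well plates. Step 2: Expose to compound for 48 hours at 5 concentrations. Step 3: Interpolate endpoints linearly; if unreached, use highest concentration. The concentration for 50% growth inhibition is given as GI50. TGI denotes the concentration required for complete inhibition of growth.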

Key:
Test in all cases: DTP human tumour cell line panel, 48 h
SK-OV-3 ovarian = test system: SK-OV-3 ovarian
SF-295 CNS = test system: SF-295 CNS
HCT-15 colon = test system: HCT-15 colon
KM12 colon = test system: KM12 colon
OVCAR-3 ovarian = test system: OVCAR-3 ovarian
TK-10 renal = test system: TK-10 renal
CCRF-CEM leukemia = test system: CCRF-CEM leukemia
BT-549 breast = test system: BT-549 breast
HL-60(TB) leukemia = test system: HL-60(TB) leukemia
NCI-H522 lung = test system: NCI-H522 lung
U251 CNS = test system: U251 CNS
OVCAR-5 ovarian = test system: OVCAR-5 ovarian
UO-31 renal = test system: UO-31 renal
MOLT-4 leukemia = test system: MOLT-4 leukemia
HS 578T breast = test system: HS 578T breast
SK-MEL-2 melanoma = test system: SK-MEL-2 melanoma
NCI-H460 lung = test system: NCI-H460 lung
HOP-92 NSCLC = test system: HOP-92 NSCLC
HCC-2998 colon = test system: HCC-2998 colon
OVCAR-4 ovarian = test system: OVCAR-4 ovarian
DU-145 prostate = test system: DU-145 prostate
LOX IMVI melanoma = test system: LOX IMVI melanoma
A549 NSCLC = test system: A549 NSCLC
HOP-62 NSCLC = test system: HOP-62 NSCLC
RPMI-8226 leukemia = test system: RPMI-8226 leukemia
786-0 renal = test system: 786-0 renal
SF-268 CNS = test system: SF-268 CNS
SF-539 CNS = test system: SF-539 CNS
IGROV1 ovarian = test system: IGROV1 ovarian
UACC-257 melanoma = test system: UACC-257 melanoma
HCT-116 colon = test system: HCT-116 colon
M14 melanoma = test system: M14 melanoma
NCI/ADR-RES ovarian = test system: NCI/ADR-RES ovarian
MDA-MB-435 = test system: MDA-MB-435
MDA-MB-231 breast = test system: MDA-MB-231 breast
PC-3 prostate = test system: PC-3 prostate
MALME-3M melanoma = test system: MALME-3M melanoma
MCF7 breast = test system: MCF7 breast
SNB-75 CNS = test system: SNB-75 CNS
SK-MEL-28 melanoma = test system: SK-MEL-28 melanoma
SNB-19 CNS = test system: SNB-19 CNS
SW-620 colon = test system: SW-620 colon
SN12C renal = test system: SN12C renal
COLO 205 colon = test system: COLO 205 colon
NCI-H226 lung = test system: NCI-H226 lung
A498 renal = test system: A498 renal
RXF 393 renal = test system: RXF 393 renal
OVCAR-8 ovarian = test system: OVCAR-8 ovarian
HT29 colon = test system: HT29 colon
T-47D breast = test system: T-47D breast
CAKI-1 renal = test system: CAKI-1 renal
ACHN renal = test system: ACHN renal
SR leukemia = test system: SR leukemia
NCI-H23 lung = test system: NCI-H23 lung
UACC-62 melanoma = test system: UACC-62 melanoma
K-562 leukemia = test system: K-562 leukemia
SK-MEL-5 melanoma = test system: SK-MEL-5 melanoma
EKVX NSCLC = test system: EKVX NSCLC

## CCn1cnc(C[C@H](NC(=O)[C@@H](NC(=O)Nc2cc(C(F)(F)F)cc(C(F)(F)F)c2)C(C)(C)C)C(=O)OC)c1
SK-OV-3 ovarian
  GI50: > 10 µM
  TGI: > 10 µM
SF-295 CNS
  GI50: > 10 µM
  TGI: > 10 µM
HCT-15 colon
  GI50: > 10 µM
  TGI: > 10 µM
KM12 colon
  GI50: > 10 µM
  TGI: > 10 µM
OVCAR-3 ovarian
  GI50: > 10 µM
  TGI: > 10 µM
TK-10 renal
  GI50: > 10 µM
  TGI: > 10 µM
CCRF-CEM leukemia
  GI50: > 10 µM
  TGI: > 10 µM
BT-549 breast
  GI50: > 10 µM
  TGI: > 10 µM
HL-60(TB) leukemia
  GI50: > 10 µM
  TGI: > 10 µM
NCI-H522 lung
  GI50: > 10 µM
  TGI: > 10 µM
U251 CNS
  GI50: > 10 µM
  TGI: > 10 µM
OVCAR-5 ovarian
  GI50: > 10 µM
  TGI: > 10 µM
UO-31 renal
  GI50: > 10 µM
  TGI: > 10 µM
MOLT-4 leukemia
  GI50: > 10 µM
  TGI: > 10 µM
HS 578T breast
  GI50: > 10 µM
  TGI: > 10 µM
SK-MEL-2 melanoma
  GI50: > 10 µM
  TGI: > 10 µM
NCI-H460 lung
  GI50: > 10 µM
  TGI: > 10 µM
HOP-92 NSCLC
  GI50: > 10 µM
  TGI: > 10 µM
HCC-2998 colon
  GI50: > 10 µM
  TGI: > 10 µM
OVCAR-4 ovarian
  GI50: > 10 µM
  TGI: > 10 µM
DU-145 prostate
  GI50: > 10 µM
  TGI: > 10 µM
LOX IMVI melanoma
  GI50: > 10 µM
  TGI: > 10 µM
A549 NSCLC
  GI50: > 10 µM
  TGI: > 10 µM
HOP-62 NSCLC
  GI50: > 10 µM
  TGI: > 10 µM
RPMI-8226 leukemia
  GI50: > 10 µM
  TGI: > 10 µM
786-0 renal
  GI50: > 10 µM
  TGI: > 10 µM
SF-268 CNS
  GI50: > 10 µM
  TGI: > 10 µM
SF-539 CNS
  GI50: > 10 µM
  TGI: > 10 µM
IGROV1 ovarian
  GI50: > 10 µM
  TGI: > 10 µM
UACC-257 melanoma
  GI50: > 10 µM
  TGI: > 10 µM
HCT-116 colon
  GI50: > 10 µM
  TGI: > 10 µM
M14 melanoma
  GI50: > 10 µM
  TGI: > 10 µM
NCI/ADR-RES ovarian
  GI50: > 10 µM
  TGI: > 10 µM
MDA-MB-435
  GI50: > 10 µM
  TGI: > 10 µM
MDA-MB-231 breast
  GI50: > 10 µM
  TGI: > 10 µM
PC-3 prostate
  GI50: > 10 µM
  TGI: > 10 µM
MALME-3M melanoma
  GI50: > 10 µM
  TGI: > 10 µM
MCF7 breast
  GI50: > 10 µM
  TGI: > 10 µM
SNB-75 CNS
  GI50: > 10 µM
  TGI: > 10 µM
SK-MEL-28 melanoma
  GI50: > 10 µM
  TGI: > 10 µM
SNB-19 CNS
  GI50: > 10 µM
  TGI: > 10 µM
SW-620 colon
  GI50: > 10 µM
  TGI: > 10 µM
SN12C renal
  GI50: > 10 µM
  TGI: > 10 µM
COLO 205 colon
  GI50: > 10 µM
  TGI: > 10 µM
NCI-H226 lung
  GI50: > 10 µM
  TGI: > 10 µM
A498 renal
  GI50: > 10 µM
  TGI: > 10 µM
RXF 393 renal
  GI50: > 10 µM
  TGI: > 10 µM
OVCAR-8 ovarian
  GI50: > 10 µM
  TGI: > 10 µM
HT29 colon
  GI50: > 10 µM
  TGI: > 10 µM
T-47D breast
  GI50: > 10 µM
  TGI: > 10 µM
CAKI-1 renal
  GI50: > 10 µM
  TGI: > 10 µM
ACHN renal
  GI50: > 10 µM
  TGI: > 10 µM
SR leukemia
  GI50: > 10 µM
  TGI: > 10 µM
NCI-H23 lung
  GI50: > 10 µM
  TGI: > 10 µM
UACC-62 melanoma
  GI50: > 10 µM
  TGI: > 10 µM
K-562 leukemia
  GI50: > 10 µM
  TGI: > 10 µM
SK-MEL-5 melanoma
  GI50: > 10 µM
  TGI: > 10 µM

## CCc1n[nH]c(=O)n1N
SK-OV-3 ovarian
  TGI: > 100 µM
SF-295 CNS
  TGI: > 100 µM
HCT-15 colon
  TGI: > 100 µM
KM12 colon
  TGI: > 100 µM
OVCAR-3 ovarian
  TGI: > 100 µM
TK-10 renal
  TGI: > 100 µM
CCRF-CEM leukemia
  TGI: > 100 µM
BT-549 breast
  TGI: > 100 µM
HL-60(TB) leukemia
  TGI: > 100 µM
NCI-H522 lung
  TGI: > 100 µM
U251 CNS
  TGI: > 100 µM
OVCAR-5 ovarian
  TGI: > 100 µM
UO-31 renal
  TGI: > 100 µM
EKVX NSCLC
  TGI: > 100 µM
MOLT-4 leukemia
  TGI: > 100 µM
HS 578T breast
  TGI: > 100 µM
SK-MEL-2 melanoma
  TGI: > 100 µM
NCI-H460 lung
  TGI: > 100 µM
HOP-92 NSCLC
  TGI: > 100 µM
HCC-2998 colon
  TGI: > 100 µM
OVCAR-4 ovarian
  TGI: > 100 µM
DU-145 prostate
  TGI: > 100 µM
LOX IMVI melanoma
  TGI: > 100 µM
A549 NSCLC
  TGI: > 100 µM
HOP-62 NSCLC
  TGI: > 100 µM
RPMI-8226 leukemia
  TGI: > 100 µM
786-0 renal
  TGI: > 100 µM
SF-268 CNS
  TGI: > 100 µM
SF-539 CNS
  TGI: > 100 µM
IGROV1 ovarian
  TGI: > 100 µM
UACC-257 melanoma
  TGI: > 100 µM
HCT-116 colon
  TGI: > 100 µM
M14 melanoma
  TGI: > 100 µM
NCI/ADR-RES ovarian
  TGI: > 100 µM
MDA-MB-435
  TGI: > 100 µM
MDA-MB-231 breast
  TGI: > 100 µM
PC-3 prostate
  TGI: > 100 µM
MALME-3M melanoma
  TGI: > 100 µM
MCF7 breast
  TGI: > 100 µM
SNB-75 CNS
  TGI: > 100 µM
SK-MEL-28 melanoma
  TGI: > 100 µM
SNB-19 CNS
  TGI: > 100 µM
SW-620 colon
  TGI: > 100 µM
SN12C renal
  TGI: > 100 µM
COLO 205 colon
  TGI: > 100 µM
NCI-H226 lung
  TGI: > 100 µM
A498 renal
  TGI: > 100 µM
OVCAR-8 ovarian
  TGI: > 100 µM
HT29 colon
  TGI: > 100 µM
T-47D breast
  TGI: > 100 µM
CAKI-1 renal
  TGI: > 100 µM
ACHN renal
  TGI: > 100 µM
SR leukemia
  TGI: > 100 µM
NCI-H23 lung
  TGI: > 100 µM
UACC-62 melanoma
  TGI: > 100 µM
K-562 leukemia
  TGI: > 100 µM
SK-MEL-5 melanoma
  TGI: > 100 µM
